Entries after “also recorded” stand apart in the source; their conditions may differ.
Legend:
AML12 hepatocytes = test: Intracellular NAD+ levels in AML12 hepatocytes treated with NRH or NR; assay type: cell-based
Experimental: Even at such relatively low dose, NRH achieved similar increases in intracellular NAD+ levels to those reached with NR at 50-fold higher concentrations.
NRH actions were also extremely fast (FIG. 3), as significant increases in NAD+ levels were observed within 5 minutes after NRH treatment.

AML12 cells = test: Pathway of NRH-induced NAD+ synthesis: intracellular metabolites and pathway inhibitors; assay type: cell-based
Experimental: FIG. 4. NRH leads to NAD+ biosynthesis through an adenosine kinase dependent path. AML12 cells were treated with an adenosine kinase inhibitor (5-IT; […]) for 1 hour prior to NRH treatment at the doses indicated. Then, 1 hour later, acidic extracts were obtained to measure NAD levels. All values in the figure are expressed as mean+/−SEM of 3 independent experiments. * indicates statistical difference at p<0.05 vs. the respective vehicle treated group.
(§1) Levels of NRH and other NAD-related metabolites in biological samples were obtained by using a cold liquid-liquid extraction using a mixture of methanol:water:chloroform in 5:3:5 (v/v), from which the polar phase was recovered for hydrophilic interaction ultra-high performance liquid chromatography mass spectrometry (UHPLC-MS) analysis. The UHPLC consisted of a binary pump, a cooled autosampler, and a column oven (DIONEX Ultimate 3000 UHPLC+ Focused, Thermo Scientific), connected to a triple quadrupole spectrometer (TSQ Vantage, Thermo Scientific) equipped with a heated electrospray ionisation (H-ESI) source. Of each sample, 2 μL were injected into the analytical column (2.1 mm×150 mm, 5 μm pore size, 200 Å HILICON iHILIC®-Fusion(P)), guarded by a pre-column (2.1 mm×20 mm, 200 Å HILICON iHILIC®-Fusion(P) Guard Kit) operating at 35° C. The mobile phase (10 mM ammonium acetate at pH 9, A, and acetonitrile, B) was pumped at 0.25 mL/min flow rate over a linear gradient of decreasing organic solvent (0.5-16 min, 90-25% B), followed by re-equilibration for a total run time of 30 min. The MS operated in positive mode at 3500 V with multiple reaction monitoring (MRM). The software Xcalibur v4.1.31.9 (Thermo Scientific) was used for instrument control, data acquisition and processing. Retention time and mass detection was confirmed by authentic standards.
A path in which NRH would be converted to NMNH, then to NADH and this would be finally oxidized to NAD+.
In order to understand the exact path by which NRH synthesizes NAD+, we initially evaluated whether NRH, could be transported into the cell by equilibrative nucleoside transporters (ENTs).
The action of NRH was also NAMPT-independent, based on experiments using FK866, a NAMPT inhibitor. If NRH led to NAD+ synthesis via the formation of NMNH, this hypothetical path would require the phosphorylation of NRH into NMNH. Given the essential and rate-limiting role of NRK1 in NR phosphorylation, we wondered whether the ability of NRH to boost NAD+ levels was NRK1 dependent. To answer this question, we evaluated NRH action in primary hepatocytes from either control or NRK1 knockout (NRK1KO) mice. […] Further, they rule out the possibility that NRH-induced NAD+ […] is driven by NRH oxidation into NR.
Considering the molecular structure of NRH, we reasoned that an alternative nucleoside kinase could be responsible for the phosphorylation of NRH. […] The role of AK in NRH-mediated NAD+ synthesis was confirmed using a second, structurally different, AK inhibitor, ABT-702. Metabolomic analyses further confirmed that upon inhibition of AK, the generation of NMNH, NADH and NAD+ was fully blunted, even if NRH was effectively entering the cell.
As a follow-up step, NMNAT enzymes could catalyze the transition from NMNH to NADH. […] Yet, part of the NRH action remained after gallotannin treatment when NRH was used at maximal doses.

[1] = Stability of NRH or NR spiked in isolated mouse plasma; assay type: in vitro ADME
Text: as §1

mice [2] = test: Tissue NAD+ levels in mice after intraperitoneal injection; assay type: in vivo; conditions: IP 500 mg/kg, after 1 h
Experimental: The above results prompted us to test whether NRH could act as an effective NAD+ precursor in vivo. For this, we first intraperitoneally (IP) injected mice with either NR or NRH (500 mg/kg). […] Importantly, NRH was detectable in circulation after IP injection.

[3] = Tissue NRH levels in mice after oral gavage (LC-MS); assay type: in vivo; conditions: oral gavage 250 mg/kg (stable isotope-labelled NRH), 2 hours
Experimental: (§2) 8 week-old C57BI/6NTac mice were orally gavaged with either saline (as vehicle), and an stable isotope-labelled NRH (250 mg/kg). After 2 hours, pancreas NRH levels were evaluated. All results are expressed as mean+/−SEM of n=4 mice per group, as areas under the signal by LC-MS analysis, corrected by total protein amount of tissue.
as §2, with “and” for “and an stable isotope-labelled”, “liver, skeletal muscle and kidney” for “pancreas”
Levels of NRH and other NAD-related metabolites in biological samples were obtained by using a cold liquid-liquid extraction using a mixture of methanol:water:chloroform in 5:3:5 (v/v), from which the polar phase was recovered for hydrophilic interaction ultra-high performance liquid chromatography mass spectrometry (UHPLC-MS) analysis. The UHPLC consisted of a binary pump, a cooled autosampler, and a column oven (DIONEX Ultimate 3000 UHPLC+ Focused, Thermo Scientific), connected to a triple quadrupole spectrometer (TSQ Vantage, Thermo Scientific) equipped with a heated electrospray ionisation (H-ESI) source. […]

mice [4] = test: Pancreas NAD+ levels in mice after intraperitoneal administration; assay type: in vivo; conditions: I.P. 500 mg/kg, after 1 hour
Experimental: 8 week-old C57BI/6NTac mice were intraperitoneally administered with either saline (as vehicle) or NRH (500 mg/kg). After 1 hour, pancreas NAD+ was measured using commercial kits. All results are expressed as mean+/−SEM of n=4 mice per group, corrected by weight of tissue.

INS-1E cells = test: Lipotoxicity (palmitic acid)-induced pancreatic β-cell death, cell viability; assay type: cell-based; conditions: palmitic acid 0.4 mM, 24 hours, NRH 0.1 mM
Experimental: INS-1E cells were treated with BSA-conjugated palmitic acid (0.4 mM) for 24 hrs in the presence or absence of NRH (0.1 mM). PBS was used as vehicle for NRH, while fatty-acid free BSA was used as control for palmited treatment. After 24 hrs, cell viability was evaluated by luminescence using a commercial kit (Cell Title-Glow; Promega). All results are expressed as mean+/−SEM of n=8 experiments. * indicates P<0.05 vs. the respective vehicle treated group.
INS-1E cells were treated with BSA-conjugated palmitic acid (0.4 mM) for 24 hours in the presence or absence of NRH (0.1 mM). PBS was used as vehicle for NRH, while fatty-acid free BSA was used as control for palmited treatment. After 24 hours, cell viability was evaluated by luminescence using a commercial kit (Cell Title-Glow; Promega).

NC(=O)C1=CN([C@@H]2O[C@H](CO)[C@@H](O)[C@H]2O)C=CC1 [NRH]
Ability to increase intracellular NAD+ compared with NR (AML12 hepatocytes; AML12 hepatocytes): superior to that of NR
Concentration range of maximal effects on NAD+ synthesis (AML12 hepatocytes; AML12 hepatocytes): around the millimolar range
Time after treatment at which significant increases in NAD+ levels were observed (AML12 hepatocytes; AML12 hepatocytes (FIG. 3)): ≤ 5 min
Fold higher NR concentration needed for similar increase in intracellular NAD+ as NRH at 10 μM (AML12 hepatocytes; AML12 hepatocytes, NRH 10 μM vs NR): 50 fold
Increase of intracellular NAD+ levels at maximal effect (AML12 hepatocytes; AML12 hepatocytes, around the millimolar range): more than 10 fold
Concentration at which NAD+ levels are significantly increased (AML12 hepatocytes; AML12 hepatocytes, dose-response (FIG. 2)): 10 µM
Intracellular detection of NRH and NMNH (AML12 cells; 5 minutes after treatment): could be detected
Increase in intracellular NR and NMN (AML12 cells; after NRH treatment, vs NR treatment): greater than that triggered by NR itself
Capacity as extracellular NAD+ precursor under ENT blockage (AML12 cells; in the presence of S-(4-nitrobenzyl)-6-thioinosine (NBTI)): largely lost its capacity
Generation of NMNH, NADH and NAD+ from NRH upon inhibition of AK (AML12 cells; metabolomic analyses): fully blunted
Dependence of NAD+ increase on NAMPT (AML12 cells; with FK866, a NAMPT inhibitor): NAMPT-independent
Compound levels in isolated mouse plasma ([1]; 2 h of incubation): remained stable
Generation of NAM in isolated mouse plasma ([1]; 2 h of incubation): not generated; also recorded: did not significantly alter NAM levels
NR production in isolated plasma ([1]; NRH incubation in isolated plasma): did not lead to NR production
NAD+ levels in kidney (mice [2]): increased NAD+ levels
NAD+ levels in liver (mice [2]): increased NAD+ levels
NAD+ levels in muscle (mice [2]): increased NAD+ levels
NRH levels in pancreas [3]: high levels
NAD+ levels in the pancreas (mice [4]): efficiently increases NAD+ levels
Cell viability under BSA-conjugated palmitic acid (INS-1E cells): protects against lipotoxicity-induced pancreatic β-cell death
